# Measurements from patent US12576047B2, “Telomerase activating compounds for use in fertility and related applications” (Neuromagen Pharma Ltd, priority 2017, dated 2026).
# How the values were obtained:
# female ICR mice = test: Estrous cycle stage by vaginal smears; assay type: in vivo, mouse
# Experimental: Female ICR mice at least 3 months old were administered embodied compounds of this invention (Compound 79 and Compound 68) (6 mg/Kg) or DMSO alone (0.5%) by subcutaneous administration. Vaginal smears were taken at baseline and at 12 hours following the administration to determine estrous cycle stage and mice were then sacrificed.
# [1] = system: Telomerase reverse transcriptase (TERT); test: TERT relative mRNA levels by qRT-PCR in granulosa cells; assay type: cell-based, rat; conditions: 50 nM and 200 nM for 6 hours
# Experimental: (§1) Immortalized rat granulosa cells expressing FSH receptor were treated with either pregnant mare serum gonadotropin (PMSG), or the indicated compounds, or both for 6 hours. Protein extracts prepared from these cells served for telomerase activity measurement using a telomere repeat amplification protocol (TRAP) assay.
# (§2) Briefly, protein extract incubated with oligonucleotide, which serves as a template for telomerase (TS), for 45 minutes at 30° C. followed by PCR with reverse primer (ACX) and internal control. PCR products were separated on 4.5% agarose gel. RNA extracts were used for cDNA synthesis and quantitative real time PCR with specific primers to Telomerase reverse transcriptase (TERT), Steroidogenic acute regulatory protein (StAr) and β-actin as a reference gene. To measure progesterone levels secreted by the cells, granulosa cells were cultured with or without 1 IU/mL PMSG and DMSO, Compound 79 50 nM or compound 70 50 nM in the presence of 100 nM dexamethasone. After 24 hours progesterone levels cell-culture medium were determined by radioimmunoassay (RIA). For cell proliferation measurement, 1×10^5 cells were seeded in a 96 wells plate with 1 IU/mL PMSG and DMSO, Compound 79 50 nM or Compound 70 50 nM. After 24 hours cells viability was measured by XTT proliferation assay.
# [2] = system: Steroidogenic acute regulatory protein (StAr); test: StAr relative mRNA levels by qRT-PCR in granulosa cells; assay type: cell-based, rat; conditions: 50 nM for 6 hours
# Experimental: as §1, §2
# telomerase = target: T1, telomerase (Rattus norvegicus, UniProt Q673L6); test: TRAP assay of telomerase activity in granulosa cells; assay type: cell-based; conditions: 50 nM and 200 nM for 6 hours
# T1 construct: Protein extracts prepared from these cells served for telomerase activity measurement; endogenous in cells; host or cells: immortalized rat granulosa cells expressing FSH receptor
# Experimental: as §1, §2
# FSH = FSH expression by RT-PCR in pituitary gland cells; assay type: cell-based, mouse; conditions: 50 nM
# Experimental: FIGS. 29A, 29B, 29C and 29D: The embodied compounds affect the expression of gonadotropin hormones in pituitary gland cells. Cells (L T2) derived from the mouse pituitary gland were assessed for their secretion of LH and FSH at 6 (FIGS. 29A and 29B) and 12 hours (FIGS. 29C and 29D) following treatment with the indicated embodied compounds (50 nM). FSH and LH expression was determined by RT-PCR, and quantified from 5 different experiments, as assessed for significance, using the t test, one way ANOVA.
# mouse ovary = test: Hematoxylin-eosin histology of mouse ovary; assay type: in vivo; conditions: for ovary histology: 6 mg/Kg single dose at Di-estrus stage; for ovary histology / ovary histology (follicles, granulosa cells): 12 hours; for ovary histology (follicles, granulosa cells): 6 mg/Kg single dose at met-estrus stage; for ovary histology (corpus luteum): 6 mg/Kg single dose at pro-estrus and estrus stages, 12 hrs
# Text: The ovaries were weighted; one was taken for protein extraction for measuring telomerase activity by TRAP assay, and the other one for the histological examination using hematoxylin-eosin staining of the ovary and its follicles.
# The mice ovaries were removed and fixed with 4% paraformaldehyde overnight, dehydrated in increasing ethanol concentrations to xylene, and embedded in paraffin. A rotary microtome was used to produce 5 μm sections, which were mounted on Superfrost plus slides. The sections were dried and heated at 37° C. overnight and stored in dry place. Paraffin-embedded sections were deparaffinized in xylene and rehydrated in decreasing concentrations of ethanol. Then the sections stained with hematoxylin-eosin or subjected to immunochemical and Immunofluorescent assays [Liani-Leibson, K., I. Har-Vardi, and E. Priel, Inhibition of topoisomerase I by anti-cancer drug altered the endometrial cyclicity and receptivity. Curr Mol Med, 2014. 14(1): p. 141-50].
# female mice = test: Progesterone levels in mouse serum; assay type: in vivo; conditions: compared to DMSO or UT, 12 hrs post treatment, P, E, and M stages
# Experimental: Blood samples were taken from the sacrificed mouse and following centrifugation (3800 rpm, 10 min) the serum was sent to the clinical endocrinology laboratory (Soroka University Medical Center, Beer-Sheva, Israel) for determination of progesterone levels.
# ICR mice = test: Sperm count from the epididymis, with or without X-ray radiation; assay type: in vivo, mouse
# Experimental: Toward this end, ICR mice (3 months old) were injected with 6 mg/kg of Compound 79, Compound 68 or Compound 70, or mice were subjected to X-ray radiation (2.5 Gy) followed by immediately injection of the respective compounds. Control mice were untreated or vehicle treated with or without exposure to X-ray radiation. […] Testes were also taken for immunohistochemical and immunofluorescence analysis with various spermatogenesis markers. Epididymis was also taken for sperm count.
# CREM = CREM expression in X-ray irradiated testis; assay type: in vivo, mouse; conditions: X-ray 2.5 Gy then injection, 12 hrs
# Experimental: (§3) Toward this end, ICR mice (3 months old) were injected with 6 mg/kg of Compound 79, Compound 68 or Compound 70, or mice were subjected to X-ray radiation (2.5 Gy) followed by immediately injection of the respective compounds. Control mice were untreated or vehicle treated with or without exposure to X-ray radiation. The testes were removed 12 hrs after treatments and subjected to protein extracts or total RNA preparations for the examination of telomerase activity by TRAP assay, telomerase expression by Western blot and real time PCR. Testes were also taken for immunohistochemical and immunofluorescence analysis with various spermatogenesis markers. Epididymis was also taken for sperm count.
# mouse testes = test: H&E histology of testes after X-ray radiation; assay type: in vivo; conditions: X-ray 2.5 Gy then injection, 12 hrs
# Experimental: as §3
# sperm = test: Sperm head morphology after X-ray radiation; assay type: in vivo, mouse; conditions: X-ray 2.5 Gy, single S.C. injection 6 mg/kg, 12 hours
# Experimental: Three-month old mice were irradiated with X-ray (2.5 Gy) and treated with a single S.C. injection of 6 mg/kg of compound 68 or 70. Mice were sacrificed 12 hours later and sperm were removed from the epididymis and stained with eosin. The number of morphologically defective sperm (head morphology) were quantified and presented as a percentage value of the total sperm count (N=6 mice per group) (FIG. 26A). FIG. 26B provides a light micrograph showing healthy and defective sperm head morphology observed. The arrows labeled 1 and 2 point to defective sperm head morphology, and the arrows labeled 3 and 4 point to healthy sperm head morphology
# [3] = injected at the diestrus or metestrus stages
# [4] = single dose injected in the proestrus or estrus stages
# T1 sequence (Q673L6 whole entry): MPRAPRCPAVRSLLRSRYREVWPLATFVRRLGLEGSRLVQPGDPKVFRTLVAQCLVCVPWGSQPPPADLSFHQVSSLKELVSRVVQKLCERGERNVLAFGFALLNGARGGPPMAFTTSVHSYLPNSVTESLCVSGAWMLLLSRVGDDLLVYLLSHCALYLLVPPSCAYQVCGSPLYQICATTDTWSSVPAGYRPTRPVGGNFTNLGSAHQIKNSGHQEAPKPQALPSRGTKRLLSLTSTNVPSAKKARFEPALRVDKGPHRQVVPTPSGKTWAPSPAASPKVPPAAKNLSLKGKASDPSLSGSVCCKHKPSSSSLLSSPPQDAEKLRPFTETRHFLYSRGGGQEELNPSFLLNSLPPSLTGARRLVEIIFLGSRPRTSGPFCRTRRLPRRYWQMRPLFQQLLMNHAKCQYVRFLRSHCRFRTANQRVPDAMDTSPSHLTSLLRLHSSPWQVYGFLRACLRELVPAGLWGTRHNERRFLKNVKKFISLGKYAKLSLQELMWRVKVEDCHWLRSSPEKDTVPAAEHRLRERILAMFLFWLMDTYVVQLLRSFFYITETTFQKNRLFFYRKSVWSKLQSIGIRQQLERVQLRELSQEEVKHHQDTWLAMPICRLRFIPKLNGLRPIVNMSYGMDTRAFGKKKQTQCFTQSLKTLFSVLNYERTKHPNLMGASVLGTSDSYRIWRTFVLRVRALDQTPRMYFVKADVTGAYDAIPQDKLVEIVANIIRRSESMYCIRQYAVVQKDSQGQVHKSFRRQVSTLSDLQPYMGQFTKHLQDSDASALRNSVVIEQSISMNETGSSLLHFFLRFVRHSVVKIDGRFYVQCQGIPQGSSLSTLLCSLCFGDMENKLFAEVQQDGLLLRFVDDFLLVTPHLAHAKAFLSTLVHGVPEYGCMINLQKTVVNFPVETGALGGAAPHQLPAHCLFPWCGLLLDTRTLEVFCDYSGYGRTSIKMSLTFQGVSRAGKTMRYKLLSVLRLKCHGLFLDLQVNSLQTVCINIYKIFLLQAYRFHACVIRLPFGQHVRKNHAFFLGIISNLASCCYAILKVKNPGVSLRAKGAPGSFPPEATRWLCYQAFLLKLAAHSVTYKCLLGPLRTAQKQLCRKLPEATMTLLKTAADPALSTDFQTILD
SMILES,estrous cycle stage 12 hrs post treatment (female ICR mice; [3]),estrous cycle stage 12 hrs post treatment (female ICR mice; [4]),TERT relative mRNA levels [1],expression of StAr [2],telomerase activity (TRAP) (telomerase),FSH expression (FSH; 12 hours),ovary histology (mouse ovary),"ovary histology (follicles, granulosa cells) (mouse ovary)",ovary histology (corpus luteum) (mouse ovary),increase in the secretion of progesterone (female mice),"sperm count (ICR mice; irradiated mice, 9 and 30 days post irradiation)","sperm cells number from the epididymis (ICR mice; non-irradiated mice, 12 hrs post treatment, compared to DMSO)",CREM expression in testis (CREM),morphology of testicular tissue (H&E) (mouse testes),"FSH expression (FSH; 6 hours, vs untreated)",number of defective sperm cells (head morphology) (sperm)
CCOCc1cc(C(C)(c2cc(COCC)c(O)c(COCC)c2)c2cc(COCC)c(O)c(COCC)c2)cc(COCC)c1O [Compound 79],No changes in the estrous cycle stage,in the metestrus stage,increased expression in a dose-dependent fashion,increased expression of StAr,increased expression in a dose-dependent fashion,decreased FSH levels,multiple layers of granulosa cells (GC) around the oocytes,more developed follicles (white arrow) and plurality of layers of granulosa cells (GC) around the oocytes,more corpus luteum (CL) than in the control group,up to 5 folds,–,–,–,–,–,–
CC(c1cc(Br)c(O)c(Br)c1)(c1cc(Br)c(O)c(Br)c1)c1cc(Br)c(O)c(Br)c1 [Compound 68],No changes in the estrous cycle stage,in the metestrus stage,–,–,–,–,a plurality of corpus luteum (CL),more developed follicles (white arrow) and plurality of layers of granulosa cells (GC) around the oocytes,more corpus luteum (CL) than in the control group,–,increased sperm count at 9 and 30 days post irradiation,a significant increase,restored the expression of the spermatogenesis markers,protected the spermatogonia cells layer from the damaging effects of X-ray and the morphology of the testicular tissue remained intact,decreased FSH expression relative to untreated samples,reduction in the number of defective sperm cells
